Measurements: patent publication US20250388565A1, “ESTROGEN RECEPTOR ALPHA DEGRADERS AND METHODS OF USE THEREOF” (Relay Therapeutics, Inc., priority 2022, published 2025)

What follows are compounds tested against T1, ERα protein (HiBiT-tagged) in ESR1_HiBiT KI MCF7 cells (Homo sapiens, UniProt P03372) (assay: Nano Glo HiBiT Lytic Degradation Assay). Settings: 6 hours with compound, 14-point dose response 1:3, bell-shape curve fit, half-maximal effect of first Hill model, read-out: MCF7 ESR1 HiBiT - (DC50).
T1 sequence (P03372 1-595): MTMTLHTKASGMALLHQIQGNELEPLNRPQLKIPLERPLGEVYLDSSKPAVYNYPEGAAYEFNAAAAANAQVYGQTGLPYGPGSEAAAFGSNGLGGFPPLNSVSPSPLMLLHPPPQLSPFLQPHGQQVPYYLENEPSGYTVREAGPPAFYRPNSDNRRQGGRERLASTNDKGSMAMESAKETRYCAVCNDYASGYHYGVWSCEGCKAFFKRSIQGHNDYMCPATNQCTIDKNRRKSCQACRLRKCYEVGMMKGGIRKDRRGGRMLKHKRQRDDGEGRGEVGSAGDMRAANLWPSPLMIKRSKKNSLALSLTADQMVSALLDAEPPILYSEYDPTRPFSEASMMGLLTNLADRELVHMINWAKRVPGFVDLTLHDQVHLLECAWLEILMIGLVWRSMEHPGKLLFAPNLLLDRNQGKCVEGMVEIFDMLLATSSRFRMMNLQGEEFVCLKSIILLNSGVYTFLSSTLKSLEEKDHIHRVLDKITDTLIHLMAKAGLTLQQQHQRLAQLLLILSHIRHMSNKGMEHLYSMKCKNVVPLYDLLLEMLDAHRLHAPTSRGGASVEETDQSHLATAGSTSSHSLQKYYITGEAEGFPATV
Assay type: cell-based
Description: Selected compounds of the present disclosure were tested in a Nano Glo HiBiT Lytic Degradation Assay to measure the level of ERα protein degradation in MCF7 cells.
Cell culture: ESR1_HiBiT KI MCF7 cells were maintained in growth media without antibiotics. Cells were maintained in exponential growth phase, between 40% and 90% confluency.
Cell seeding: Cells were counted using a Vi-Cell and seeded in a 384-well flat-bottom microplate (cell culture-treated) at 4000 cells/well in 25 μL of growth medium using a BioTek MultiFlo Multimode Dispenser. Plates were incubated for 24 h at 37° C., 5% CO2, >95% relative humidity.
Compound preparation: Compounds were screened as 14-point dose response curves 1:3 dilutions. DMSO is used as the vehicle control and all wells were normalized to the same final DMSO concentration (0.1% v/v). Compounds were dosed using an Echo Acoustic Liquid Handler, 25 nL of 1000× (10 mM top concentration) DMSO stock/well. Cells were incubated with compounds for 6 hours at 37° C., 5% CO2, >95% relative humidity. Each compound was run in duplicate.
Nano Glo HiBiT Lytic Degradation Assay: HiBiT-tagged ERα protein levels were quantified using a Nano Glo HiBiT Lytic Degradation Assay following the manufacturer's protocol. Briefly, the Nano-Glo® HiBiT Lytic Reagent was prepared by diluting the LgBiT Protein reagent (1:100) and the Nano-Glo® HiBiT Lytic Substrate (1:50) into Nano-Glo® HiBiT Lytic Buffer at room temperature. The 384-well microplate were equilibrated to room temperature and 25 μL of Nano-Glo® HiBiT Lytic Reagent was added to each well. Samples were mixed by placing the 384-well microplate on an orbital shaker for 10 minutes. Luminescence was measured using an EnVision 2105 Multimode Plate Reader.
Data processing and analysis: Background signal (wells containing growth medium without cells) was subtracted from individual relative light units (RLU) values and the resulting values were normalized to the DMSO control well values. Dose responses were analyzed with Genedata Screener® using a bell-shape curve fit and the concentrations corresponding to the half-maximal effect of the first Hill model were used as DC50 values.
With `O=C1CC[C@H](N2Cc3cc(N4CCN(CC5CCN(c6ccc([C@H]7c8ccc(O)cc8CC[C@H]7c7cccc8c7CCC8)cc6)CC5)CC4)ccc3C2=O)C(=O)N1` (single isomer, unassigned) [Compound I-411] the DC50 was 1 nM.
With `O=C1CC[C@H](N2Cc3cc(N4CCN(C5CCN(c6ccc([C@@H]7c8ccc(O)cc8CC[C@@H]7c7ccccc7)cc6)CC5)CC4)ccc3C2=O)C(=O)N1` [II-31] the DC50 was 0.9 nM.
For `C[C@@H]1C[C@H](c2ccccc2)[C@H](c2ccc(N3CCC(CN4CCN(c5ccc6c(c5)CN([C@H]5CCC(=O)NC5=O)C6=O)CC4)CC3)cc2)c2ccc(O)cc21` (single isomer, unassigned) [Compound I-419], the DC50 was 2 nM.
Compound `CN(CC1CCN(c2ccc([C@@H]3c4ccc(O)cc4CC[C@@H]3c3ccccc3)cc2)CC1)C1CN(c2ccc3c(c2)CN(C2CCC(=O)NC2=O)C3=O)C1` (single isomer, unassigned) [II-9] has a DC50 of 21 nM.
Compound `O=C1CCC(N2Cc3cc(C4CCN(CC5CCN(c6ccc([C@@H]7c8ccc(O)cc8CC[C@@H]7c7ccccc7)cc6)CC5)CC4)ccc3C2=O)C(=O)N1` (stereo partly shown) [II-105] has a DC50 of at least 10000 nM.
With `O=C1CCC(N2Cc3cc(N4CCN(CC5CCC(c6ccc([C@@H]7c8ccc(O)cc8CC[C@@H]7c7ccccc7)cc6)CC5)CC4)ccc3C2=O)C(=O)N1` (stereo partly shown) [II-53] the DC50 was 0.22 nM.
In the case of `O=C1CCC(c2cccc(N3CCC4(CCN(CC5CCN(c6ccc([C@@H]7c8ccc(O)cc8CC[C@@H]7c7ccccc7)cc6)CC5)CC4)CC3)c2)C(=O)N1` (stereo partly drawn) [Compound I-183, 3-(3-(9-((1-(4-((1R,2S)-6-hydroxy-2-phenyl-1,2,3,4-tetrahydronaphthalen-1-yl)phenyl)piperidin-4-yl)methyl)-3,9-diazaspiro[5.5]undecan-3-yl)phenyl)piperidine-2,6-dione], the DC50 is reported as at least 10000 nM.
For `O=C1CC[C@H](N2Cc3cc(N4CCN(CCC5CCN(c6ccc([C@@H]7c8ccc(O)cc8CC[C@@H]7c7ccccc7)cc6)CC5)CC4)ccc3C2=O)C(=O)N1` [II-97], the DC50 was 0.79 nM.
`Cc1c(F)cccc1[C@H]1OCc2cc(O)ccc2[C@H]1c1ccc(N2CCC(CN3CCN(c4ccc5c(c4)CN([C@H]4CCC(=O)NC4=O)C5=O)CC3)CC2)cc1` (single isomer, unassigned) [Compound I-379] was tested, and the DC50 was 0.37 nM.
In the case of `O=C1CC[C@H](N2Cc3cc(N4CCN(CC5CCN(c6ccc([C@H]7c8ccc(O)cc8CO[C@H]7c7ccc8c(c7)CCC8)cc6)CC5)CC4)ccc3C2=O)C(=O)N1` [Compound I-366, (S)-3-(5-(4-((1-(4-((3R,4S)-3-(2,3-dihydro-1H-inden-5-yl)-7-hydroxyisochroman-4-yl)phenyl)piperidin-4-yl)methyl)piperazin-1-yl)-1-oxoisoindolin-2-yl)piperidine-2,6-dione], the DC50 is reported as at least 10000 nM.
In the case of `O=C1CC[C@H](N2Cc3cc(N4CCN(CC5CCN(c6ccc([C@@H]7c8ccc(O)cc8C(F)(F)C[C@@H]7CC7CCCC7)cc6)CC5)CC4)ccc3C2=O)C(=O)N1` [Compound I-196, (3S)-3-[5-[4-[[1-[4-[(1R,2S)-2-(cyclopentylmethyl)-4,4-difluoro-6-hydroxy-tetralin-1-yl]phenyl]-4-piperidyl]methyl]piperazin-1-yl]-1-oxo-isoindolin-2-yl]piperidine-2,6-dione], the DC50 is reported as 2 nM.
`COc1cc(N2CCC(CN3CCN(c4ccc5c(c4)CN([C@H]4CCC(=O)NC4=O)C5=O)CC3)CC2)c(-c2ccccc2)cc1[C@@H]1CCC(F)(F)c2cc(O)ccc21` [Compound I-405, (S)-3-(5-(4-((1-(5-((R)-4,4-difluoro-6-hydroxy-1,2,3,4-tetrahydronaphthalen-1-yl)-4-methoxy-[1,1′-biphenyl]-2-yl)piperidin-4-yl)methyl)piperazin-1-yl)-1-oxoisoindolin-2-yl)piperidine-2,6-dione] was tested, and the DC50 was 1100 nM.
For `O=C1CC[C@H](N2Cc3cc(N4CCN(CC5CCN(c6ccc([C@@H]7c8ccc(O)cc8CC[C@@H]7c7ccccc7)cn6)CC5)CC4)ccc3C2=O)C(=O)N1` [II-80], the DC50 was 0.68 nM.
In the case of `Cn1nc([C@H]2CCC(=O)NC2=O)c2ccc(N3CCN(CC4CCN(c5ccc([C@@H]6c7ccc(O)cc7CO[C@@H]6c6ccccc6)cc5)CC4)CC3)cc21` (single isomer, unassigned) [Compound I-394], the DC50 is reported as 0.39 nM.
`O=C1CC[C@H](N2Cc3cc(N4CCN(CC5CCN(c6ccc([C@@H]7c8ccc(O)cc8CO[C@@H]7c7ccccc7)cc6F)CC5)CC4)ccc3C2=O)C(=O)N1` (single isomer, unassigned) [Compound I-381] gave a DC50 of 0.16 nM.
`C[C@@H]1O[C@@H](C2CCCCC2)[C@H](c2ccc(N3CCC(CN4CCN(c5ccc6c(c5)CN([C@H]5CCC(=O)NC5=O)C6=O)CC4)CC3)cc2)c2ccc(O)cc21` (single isomer, unassigned) [Compound I-254] gave a DC50 of 41 nM.
Work on `C[C@@H]1O[C@@H](c2ccccc2)[C@@H](c2ccc(N3CCC(CN4CCN(c5ccc6c(c5)CN([C@H]5CCC(=O)NC5=O)C6=O)CC4)CC3)cc2)c2ccc(O)cc21` (single isomer, unassigned) [Compound I-368] yielded a DC50 of 3 nM.
With `O=C1CC[C@H](N2Cc3cc(N4CCN(C[C@@H]5CCCN(c6ccc([C@@H]7c8ccc(O)cc8CC[C@@H]7c7ccccc7)cc6)C5)CC4)ccc3C2=O)C(=O)N1` (single isomer, unassigned) [II-20] the DC50 was at least 10000 nM.
Work on `Cc1cc(F)cc(C)c1[C@@H]1CCc2cc(O)ccc2[C@@H]1c1ccc(N2CCC(CN3CCN(c4ccc5c(c4)CN([C@H]4CCC(=O)NC4=O)C5=O)CC3)CC2)cc1` [II-71] yielded a DC50 of at least 10000 nM.
`O=C1CC[C@H](N2Cc3cc(N4CCN(CC5CCN(c6ccc([C@H]7c8ccc(O)cc8CO[C@H]7c7cccc(OC(F)(F)F)c7)cc6)CC5)CC4)ccc3C2=O)C(=O)N1` [Compound I-361, (S)-3-(5-(4-((1-(4-((3R,4S)-7-hydroxy-3-(3-(trifluoromethoxy)phenyl)isochroman-4-yl)phenyl)piperidin-4-yl)methyl)piperazin-1-yl)-1-oxoisoindolin-2-yl)piperidine-2,6-dione] showed a DC50 of at least 10000 nM.
`O=C1CCC(N2Cc3cc(N4CCN(CC5CCN(c6c(F)cc([C@H]7c8ccc(O)cc8CC[C@H]7C7CCCCC7)cc6F)CC5)CC4)ccc3C2=O)C(=O)N1` (stereo in doubt) [Compound I-160, (R)-3-(5-(4-((1-(4-((1S,2S)-2-cyclohexyl-6-hydroxy-1,2,3,4-tetrahydronaphthalen-1-yl)-2,6-difluorophenyl)piperidin-4-yl)methyl)piperazin-1-yl)-1-oxoisoindolin-2-yl)piperidine-2,6-dione] gave a DC50 of at least 10000 nM.
In the case of `C[C@H]1O[C@@H](C2CCCCC2)[C@H](c2ccc(N3CCC(CN4CCN(c5ccc6c(c5)CN([C@H]5CCC(=O)NC5=O)C6=O)CC4)CC3)cc2)c2ccc(O)cc21` (single isomer, unassigned) [Compound I-253], the DC50 is reported as 0.45 nM.
In the case of `C[C@@H]1CN(c2ccc3c(c2)CN([C@H]2CCC(=O)NC2=O)C3=O)CCN1CC1CCN(c2ccc([C@@H]3c4ccc(O)cc4CC[C@@H]3c3ccccc3)cc2)CC1` [II-2], the DC50 is reported as 1 nM.
`Cc1cc(F)c([C@H]2OCc3cc(O)ccc3[C@H]2c2ccc(N3CCC(CN4CCN(c5ccc6c(c5)CN([C@H]5CCC(=O)NC5=O)C6=O)CC4)CC3)cc2)cc1F` [Compound I-369, (S)-3-(5-(4-((1-(4-((3S,4R)-3-(2,5-difluoro-4-methylphenyl)-7-hydroxyisochroman-4-yl)phenyl)piperidin-4-yl)methyl)piperazin-1-yl)-1-oxoisoindolin-2-yl)piperidine-2,6-dione] showed a DC50 of 0.34 nM.
`O=C1CCC(N2Cc3cc([C@@H]4CCN(CC5CCN(c6ccc([C@@H]7c8ccc(O)cc8CC[C@@H]7c7ccccc7)cc6)CC5)C[C@H]4O)ccc3C2=O)C(=O)N1` (single isomer, unassigned) [II-106] showed a DC50 of 2.82 nM.
